38 molecules from patent publication US8946203B2, “Benzodioxane inhibitors of leukotriene production” (Boehringer Ingelheim International GmbH, priority 2012, dated 2015) can be followed below.

The target of one assay is T1, human LTA4 hydrolase (Homo sapiens, UniProt P09960).
T1 sequence (P09960 1-611): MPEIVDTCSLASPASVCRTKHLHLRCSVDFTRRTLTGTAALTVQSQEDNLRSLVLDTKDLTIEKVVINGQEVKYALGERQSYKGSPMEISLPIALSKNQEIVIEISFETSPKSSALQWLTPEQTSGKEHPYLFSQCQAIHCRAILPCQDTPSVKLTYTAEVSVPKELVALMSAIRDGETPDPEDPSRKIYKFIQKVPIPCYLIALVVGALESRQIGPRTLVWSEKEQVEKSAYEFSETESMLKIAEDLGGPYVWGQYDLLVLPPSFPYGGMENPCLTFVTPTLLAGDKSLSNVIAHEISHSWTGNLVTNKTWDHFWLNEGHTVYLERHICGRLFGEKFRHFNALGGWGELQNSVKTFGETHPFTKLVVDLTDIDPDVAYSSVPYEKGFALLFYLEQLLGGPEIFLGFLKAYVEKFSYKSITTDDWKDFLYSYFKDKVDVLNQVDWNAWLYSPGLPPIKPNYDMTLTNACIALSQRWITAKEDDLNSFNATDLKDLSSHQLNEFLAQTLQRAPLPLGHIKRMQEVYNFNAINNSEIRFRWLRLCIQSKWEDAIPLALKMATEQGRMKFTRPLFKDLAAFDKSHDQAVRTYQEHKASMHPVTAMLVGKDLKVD
Put plainly: LTA4H Enzyme assay (cleavage of Arg-AMC, fluorescence). It is filed as biochemical.
Settings: not given
Here is the method:
The compounds of the invention are assessed for the ability to interact with human LTA4 hydrolase in an enzymatic assay that measures the ability of the enzyme to cleave the peptide bond of arginyl-aminomethylcoumarin (Arg-AMC). LTA4H Enzyme (1 nM final), Arg-AMC substrate (50 μM final), and compound are combined in a reaction buffer (50 mM Tris-HCl (pH 7.5), 100 mM KCl, 0.5% bovine serum albumin) at room temperature for 1 h. The formation of product is assessed by measuring the fluorescence of aminomethylcoumarin product (excitation wavelength 380 nm/emission wavelength 460 nm).
A word on the IC50: it is the midpoint of a concentration-inhibition curve. In turn, `CN(C)CCN(C)Cc1ccc([C@H]2COc3ccccc3O2)cc1` [Example 79, N-{4-[(2S)-2,3-dihydro-1,4-benzodioxin-2-yl]benzyl}-N,N′,N′-trimethylethane-1,2-diamine] registered an IC50 of 0.51 nM.

The assay is the same for the next values; noted with them: LTA4H Enzyme 1 nM, Arg-AMC substrate 50 μM, room temperature 1 h, fluorescence; read-out: IC50 values of LTA4H Enzyme assay.
As for `O=C(O)C1CCCN(Cc2ccc(C3COc4ccccc4O3)cc2)C1` (racemic) [Example 113, 1-[4-(2,3-dihydro-1,4-benzodioxin-2-yl)benzyl]piperidine-3-carboxylic acid], the IC50 came to 2.49 nM. With `NC(=O)C1CCCN(Cc2ccc(C3COc4ccccc4O3)cc2)C1` (racemic) [Example 114, 1-[4-(2,3-dihydro-1,4-benzodioxin-2-yl)benzyl]piperidine-3-carboxamide], the 50% inhibitory concentration (IC50) came to 0.77 nM.

On to `F[C@H]1CCN(Cc2ccc(C3COc4ccccc4O3)cc2)C1` (mixture of isomers) [Example 115, (3S)-1-[4-(2,3-dihydro-1,4-benzodioxin-2-yl)benzyl]-3-fluoropyrrolidine], for which the IC50 was 3.03 nM. Consider `OC1CCN(Cc2ccc([C@H]3COc4ccccc4O3)cc2)CC1` (single isomer, unassigned) [Example 192], for which the half-inhibitory concentration (IC50) was 0.43 nM. Consider `OC1CCN(Cc2ccc([C@@H]3COc4ccccc4O3)cc2)CC1` (single isomer, unassigned) [Example 193], for which the concentration for half-maximal inhibition (IC50) stood at 5.35 nM. On to `O=C1NCCC12CCN(Cc1ccc([C@H]3COc4ccccc4O3)cc1)CC2` (single isomer, unassigned) [Example 194], for which the IC50 came out at 0.15 nM. Take `O=C1NCCC12CCN(Cc1ccc([C@@H]3COc4ccccc4O3)cc1)CC2` (single isomer, unassigned) [Example 195]: the IC50 amounted to 1.59 nM.

Consider `c1ccc2c(c1)OC[C@H](c1ccc(CN3CCCC3)cc1)O2` (single isomer, unassigned) [Example 196], for which the 50% inhibitory concentration (IC50) was 0.39 nM. Same read-out and setting: in the case of `c1ccc2c(c1)OC[C@@H](c1ccc(CN3CCCC3)cc1)O2` (single isomer, unassigned) [Example 197] it was 2.69 nM. Regarding `c1ccc2c(c1)OC[C@H](c1ccc(CN3CCOCC3)cc1)O2` (single isomer, unassigned) [Example 198], the IC50 was determined as 2.28 nM. In the case of `c1ccc2c(c1)OC[C@@H](c1ccc(CN3CCOCC3)cc1)O2` (single isomer, unassigned) [Example 199], the IC50 amounted to 40.1 nM. As to `CN(C)C(=O)C1CCN(Cc2ccc([C@H]3COc4ccccc4O3)cc2)CC1` [Example 8, 1-{4-[(2S)-2,3-dihydro-1,4-benzodioxin-2-yl]benzyl}-N,N-dimethylpiperidine-4-carboxamide], the half-inhibitory concentration (IC50) worked out at 0.32 nM. `CN(Cc1ccc([C@H]2COc3ccccc3O2)cc1)C1CCN(S(C)(=O)=O)CC1` [Example 13, N-{4-[(2S)-2,3-dihydro-1,4-benzodioxin-2-yl]benzyl}-N-methyl-1-(methylsulfonyl)piperidin-4-amine]: the IC50 turned out to be 0.36 nM. With `O=C(O)[C@@H]1CCCN(Cc2ccc([C@H]3COc4ccccc4O3)cc2)C1` [Example 19, (3R)-1-{4-[(2S)-2,3-dihydro-1,4-benzodioxin-2-yl]benzyl}piperidine-3-carboxylic acid], the IC50 worked out at 0.73 nM.

Regarding `O=C(O)[C@H]1CCCN(Cc2ccc([C@H]3COc4ccccc4O3)cc2)C1` [Example 20, (3S)-1-{4-[(2S)-2,3-dihydro-1,4-benzodioxin-2-yl]benzyl}piperidin-3-carboxylic acid], the half-maximal inhibitory concentration (IC50) came out at 1.3 nM. Consider `OC(C1CCN(Cc2ccc([C@H]3COc4ccccc4O3)cc2)CC1)C(F)(F)F` (stereo partly drawn) [Example 21, 1-(1-{4-[(2S)-2,3-dihydro-1,4-benzodioxin-2-yl]benzyl}piperidin-4-yl)-2,2,2-trifluoroethanol], for which the IC50 was determined as 4.43 nM. In the case of `OC(C1CCN(Cc2ccc([C@H]3COc4ccccc4O3)cc2)CC1)(C(F)(F)F)C(F)(F)F` [Example 22, 2-(1-{4-[(2S)-2,3-dihydro-1,4-benzodioxin-2-yl]benzyl}piperidin-4-yl)-1,1,1,3,3,3-hexafluoropropan-2-ol], the half-maximal inhibitory concentration (IC50) was determined as 200 nM.

Turning to `O=C(O)C1CN(Cc2ccc([C@H]3COc4ccccc4O3)cc2)Cc2ccccc21` (stereo partly drawn) [Example 56, 2-{4-[(2S)-2,3-dihydro-1,4-benzodioxin-2-yl]benzyl}-1,2,3,4-tetrahydroisoquinoline-4-carboxylic acid], the half-inhibitory concentration (IC50) amounted to 6.08 nM. In the case of `O=C(O)[C@@H]1CC[C@H](NCc2ccc([C@H]3COc4ccccc4O3)cc2)C1` [Example 57, (1R,3S)-3-({4-[(2S)-2,3-dihydro-1,4-benzodioxin-2-yl]benzyl}amino)cyclopentane-carboxylic acid], the half-inhibitory concentration (IC50) was found to be 13.7 nM. For the molecule `CC(C)(C)C(CC(=O)O)NCc1ccc([C@H]2COc3ccccc3O2)cc1` (stereo partly drawn) [Example 58, 3-({4-[(2S)-2,3-dihydro-1,4-benzodioxin-2-yl]benzyl}amino)-4,4-dimethylpentanoic acid], the IC50 worked out at 1.36 nM.

Regarding `O=C(O)C1(NCc2ccc([C@H]3COc4ccccc4O3)cc2)CCCC1` [Example 59, 1-({4-[(2S)-2,3-dihydro-1,4-benzodioxin-2-yl]benzyl}amino)cyclopentane-carboxylic acid], the half-maximal inhibitory concentration (IC50) came out at 89.2 nM. On the same count and under the same terms, under `CN(CC(=O)O)Cc1ccc([C@H]2COc3ccccc3O2)cc1` [Example 60, N-{4-[(2S)-2,3-dihydro-1,4-benzodioxin-2-yl]benzyl}-N-methylglycine] stands 31 nM; under `CC(=O)N1CC[C@H](NCc2ccc([C@H]3COc4ccccc4O3)cc2)C1` [Example 65, 1-[(3S)-3-({4-[(2S)-2,3-dihydro-1,4-benzodioxin-2-yl]benzyl}amino)pyrrolidin-1-yl]ethanone], 1.15 nM; under `NC(=O)[C@H]1CC[C@H](NCc2ccc([C@H]3COc4ccccc4O3)cc2)CC1` [Example 66, trans-4-({4-[(2S)-2,3-dihydro-1,4-benzodioxin-2-yl]benzyl}amino)cyclohexane-carboxamide], 1.79 nM. `OCCC1CCN(Cc2ccc([C@H]3COc4ccccc4O3)cc2)CC1` [Example 70, 2-(1-{4-[(2S)-2,3-dihydro-1,4-benzodioxin-2-yl]benzyl}piperidin-4-yl)ethanol]: the IC50 turned out to be 0.57 nM. Turning to `CC(C)NCc1ccc([C@H]2COc3ccccc3O2)cc1` [Example 71, N-{4-[(2S)-2,3-dihydro-1,4-benzodioxin-2-yl]benzyl}propan-2-amine], the IC50 was 1.88 nM. Still for that read-out and setting: in the case of `COCC(C)NCc1ccc([C@H]2COc3ccccc3O2)cc1` (stereo partly drawn) [Example 72, N-{4-[(2S)-2,3-dihydro-1,4-benzodioxin-2-yl]benzyl}-1-methoxypropan-2-amine] it was 1.8 nM. For `CCCNCc1ccc([C@H]2COc3ccccc3O2)cc1` [Example 73, N-{4-[(2S)-2,3-dihydro-1,4-benzodioxin-2-yl]benzyl}propan-1-amine], the IC50 came to 3.65 nM. For `CCN(C)Cc1ccc([C@H]2COc3ccccc3O2)cc1` [Example 74, N-{4-[(2S)-2,3-dihydro-1,4-benzodioxin-2-yl]benzyl}-N-methylethanamine], the IC50 is 1 nM. For `CN(C)Cc1ccc([C@H]2COc3ccccc3O2)cc1` [Example 75, 1-{4-[(2S)-2,3-dihydro-1,4-benzodioxin-2-yl]phenyl}-N,N-dimethylmethanamine], the 50% inhibitory concentration (IC50) stood at 4.51 nM.

With `O[C@H]1CC[C@H](NCc2ccc([C@H]3COc4ccccc4O3)cc2)CC1` [Example 76, trans-4-({4-[(2S)-2,3-dihydro-1,4-benzodioxin-2-yl]benzyl}amino)cyclohexanol], the half-maximal inhibitory concentration (IC50) was determined as 1.9 nM.

As for `CC1CCCN1Cc1ccc([C@H]2COc3ccccc3O2)cc1` (stereo partly drawn) [Example 77, 1-{4-[(2S)-2,3-dihydro-1,4-benzodioxin-2-yl]benzyl}-2-methylpyrrolidine], the concentration for half-maximal inhibition (IC50) is 0.18 nM.

For `OC1CCCN(Cc2ccc([C@H]3COc4ccccc4O3)cc2)C1` (stereo partly drawn) [Example 78, 1-{4-[(2S)-2,3-dihydro-1,4-benzodioxin-2-yl]benzyl}piperidin-3-ol], the IC50 amounted to 1.4 nM.

With `OCCN(Cc1ccc([C@H]2COc3ccccc3O2)cc1)C1CCCCC1` [Example 80, 2-(cyclohexyl{4-[(2S)-2,3-dihydro-1,4-benzodioxin-2-yl]benzyl}amino)ethanol], the IC50 turned out to be 0.71 nM. On to `CC(=O)NC1CCN(Cc2ccc([C@H]3COc4ccccc4O3)cc2)C1` (stereo partly drawn) [Example 82, N-(1-{4-[(2S)-2,3-dihydro-1,4-benzodioxin-2-yl]benzyl}pyrrolidin-3-yl)acetamide], for which the IC50 is 0.2 nM. In the case of `c1ccc2c(c1)OC[C@H](c1ccc(CN3CCC[C@H]4CCCC[C@@H]43)cc1)O2` [Example 85, (4aR,8aS)-1-{4-[(2S)-2,3-dihydro-1,4-benzodioxin-2-yl]benzyl}decahydroquinoline], the IC50 is 0.45 nM.

Consider `NC(=O)[C@H]1CCCC[C@H]1NCc1ccc([C@H]2COc3ccccc3O2)cc1` [Example 86, (1S,2R)-2-({4-[(2S)-2,3-dihydro-1,4-benzodioxin-2-yl]benzyl}amino)cyclohexane-carboxamide], for which the IC50 worked out at 0.92 nM.
